Where two headings read alike, the source gives them in different places.
How the values were obtained:
[1] = system: amphetamine-induced hyperlocomotion; assay: Reversal of amphetamine-induced hyperlocomotion; format: in vivo, male Sprague-Dawley rats; conditions: test compound by oral gavage in 20% HP-beta-CD; amphetamine sulfate 1 mg/kg sc; FIG. 4
Description: Locomotor activity was assessed as mean distance traveled (cm) in standard 16×16 photocell testing chambers measuring 43.2 cm (Length)×43.2 cm (Width)×30.5 cm (Height) (Med Associates, St. Albans, Vt.). Animals were habituated to individual activity chambers for at least 30 min prior to drug administration. Following administration of drug or vehicle, activity was recorded for a 90 minute time period. Data was expressed as the mean (±SEM) distance traveled recorded in 5 min intervals over the test period. The data was analyzed using repeated measures analysis of variance (ANOVA) followed by post-hoc testing using Dunnett's test, when appropriate. A difference was considered significant when p≦0.05. […]
The animals were habituated in Smart Open Field locomotor activity test chambers (Hamilton-Kinder, San Diego, Calif.) with 16×16 photobeams to automatically record locomotor activity for 30 min and then dosed with vehicle or test compound. […] At 60 min, all rats were injected subcutaneously with 1 mg/kg amphetamine or vehicle and then monitored for an additional 60 min. Animals are monitored for a total of 120 minutes. Data are expressed as changes in ambulation defined as total number of beam breaks per 5 min periods.
The data for the dose-response studies were analyzed by a between-group analysis of variance. […]

human mGluR5a receptor = human mGluR5a receptor (Homo sapiens, UniProt P41594); assay: Cell-based functional assay (Ca2+ mobilization, FDSS) for positive allosteric modulation of mGluR5; conditions: for EC50: HEK cells transfected with human mGluR5a (H10H or H12H), potentiation in presence of EC20 glutamate; for Emax: maximum % effect in concentration-response curve, as percent of response to maximally effective glutamate concentration
Description: The mGluR5 activity was determined using the metabotropic glutamate receptor activity assays in human embryonic kidney cells as described herein, wherein the human embryonic kidney cells were transfected with human mGluR5. The compounds in Table I were synthesized with methods identical or analogous to those shown herein. The Synthetic Route Reference indicated in Table I refers to the Reaction Scheme number described above. The requisite starting materials were commercially available, described in the literature, or readily synthesized by one skilled in the art of organic synthesis.
Human mGluR5a cDNA in pCMV6-XL6 mammalian expression plasmid was purchased from OriGene Technologies, Inc. (catalogue number SC326357) and subcloned into pcDNA3.1(−). […] Monoclones were named for the species (“H” for human) plus the location on the plate (e.g. “10H”).
HEK cells transfected with the human mGluR5a receptor (H10H or H12H cell line) were plated at 15,000 cells/well in clear-bottomed poly-D-lysine-coated assay plates (BD Falcon) in glutamate-glutamine-free growth medium and incubated overnight at 37° C. and 5% CO2. Cell-lines used were either the H10H or H12H cell-lines expressing the human mGluR5 receptor. The following day, the growth medium was removed and the cells were washed with assay buffer containing 1× Hank's balanced salt solution (Invitrogen, Carlsbad, Calif.), 20 mM HEPES, 2.5 mM probenecid, pH 7.4 and left with 20 μL of this reagent. Following this step, the cells were loaded with calcium indicator dye, fluo-4 AM, to a final concentration of 2 μM and incubated for 40-45 min at 37° C. The dye solution was removed and replaced with assay buffer. Cell plates were held for 10-15 min at room temperature and were then loaded into the Functional Drug Screening System 6000 (FDSS 6000, Hamamatsu, Japan).
After establishment of a fluorescence baseline for about 3 seconds, the compounds of the present invention were added to the cells, and the response in cells was measured. 2.3 minutes later an EC20 concentration of the mGluR5 receptor agonist glutamate was added to the cells, and the response of the cells was measured for about 1.7 minutes. All test compounds were dissolved and diluted to a concentration of 10 mM in 100% DMSO and then serially diluted into assay buffer for a 2× stock solution in 0.6% DMSO; stock compounds were then added to the assay for a final DMSO concentration of 0.3% after the first addition to the assay well. Calcium fluorescence measures were recorded as fold over basal fluorescence; raw data was then normalized to the maximal response to glutamate.
The concentration-response curves of compounds of the present invention, obtained in the presence of EC20 of mGluR5 receptor agonist glutamate to determine positive allosteric modulation, were generated using Microsoft Excel with IDBS XLfit add-ins. The raw data file containing all time points was used as the data source in the analysis template. This was saved by the FDSS as a tab-delimitted text file. Data were normalized using a static ratio function (F/F0) for each measurement of the total 350 values per well divided by each well's initial value. Data was then reduced as to peak amplitudes (Max—Initial Min) using a time range that starts approximately 1 second after the glutamate EC20 addition and continues for approximately 40 seconds. This is sufficient time to capture the peak amplitude of the cellular Calcium response. Individual amplitudes were expressed as % EMax by multiplying each amplitude by 100 and then dividing the product by the mean of the amplitudes derived from the glutamate ECMax-treated wells. pEC50 values for test compounds were generated by fitting the normalized values versus the log of the test compound concentration (in mol/L) using a 4 parameter logistic equation where none of the parameters were fixed.

[2] = concentration in mol/L, read-out: pEC50 (converted)

Sequence of human mGluR5a receptor (P41594 21-1180 isoform P41594-2 limits assumed): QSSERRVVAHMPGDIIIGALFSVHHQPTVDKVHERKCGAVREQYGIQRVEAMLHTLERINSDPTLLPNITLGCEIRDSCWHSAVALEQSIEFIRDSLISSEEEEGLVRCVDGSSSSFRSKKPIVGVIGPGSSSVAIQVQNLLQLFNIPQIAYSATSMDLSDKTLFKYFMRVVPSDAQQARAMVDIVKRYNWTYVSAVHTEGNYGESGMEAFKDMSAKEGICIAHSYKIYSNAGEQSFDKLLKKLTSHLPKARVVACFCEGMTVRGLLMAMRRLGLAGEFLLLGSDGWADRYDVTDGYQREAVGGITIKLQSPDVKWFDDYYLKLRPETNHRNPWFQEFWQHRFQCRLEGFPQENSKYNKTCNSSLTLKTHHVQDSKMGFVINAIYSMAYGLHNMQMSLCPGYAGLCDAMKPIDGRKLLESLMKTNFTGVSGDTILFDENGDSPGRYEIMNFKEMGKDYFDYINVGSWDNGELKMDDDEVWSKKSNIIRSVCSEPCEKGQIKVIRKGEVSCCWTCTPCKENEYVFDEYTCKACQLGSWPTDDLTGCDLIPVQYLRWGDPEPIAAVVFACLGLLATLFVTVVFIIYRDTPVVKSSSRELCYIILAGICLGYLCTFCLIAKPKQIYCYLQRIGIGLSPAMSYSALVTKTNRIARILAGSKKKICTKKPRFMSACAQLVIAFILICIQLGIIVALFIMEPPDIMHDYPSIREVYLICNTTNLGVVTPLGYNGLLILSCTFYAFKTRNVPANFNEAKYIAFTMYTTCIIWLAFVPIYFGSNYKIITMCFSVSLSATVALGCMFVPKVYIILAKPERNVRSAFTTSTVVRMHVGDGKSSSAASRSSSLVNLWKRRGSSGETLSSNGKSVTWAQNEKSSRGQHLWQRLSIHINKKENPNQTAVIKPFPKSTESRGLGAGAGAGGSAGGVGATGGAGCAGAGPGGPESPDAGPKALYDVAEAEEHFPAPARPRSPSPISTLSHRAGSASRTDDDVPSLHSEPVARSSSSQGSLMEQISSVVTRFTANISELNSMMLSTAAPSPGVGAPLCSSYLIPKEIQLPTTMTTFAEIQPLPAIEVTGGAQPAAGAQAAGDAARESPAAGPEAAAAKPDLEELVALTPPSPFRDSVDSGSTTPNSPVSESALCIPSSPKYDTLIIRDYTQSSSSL

Row | SMILES | EC50 (human mGluR5a receptor; read-out: EC50) | Emax (human mGluR5a receptor) | melting point | EC50 (human mGluR5a receptor; [2]) | reversal of amphetamine-induced hyperlocomotion [1]
1 | O=C1N(c2ccc(F)cc2)CCc2nc(COc3ccccc3)cn21 [6-(4-fluorophenyl)-2-(phenoxymethyl)-7,8-dihydroimidazo[1,2-c]pyrimidin-5(6H)-one] |  |  |  |  | Dose-dependent results for reversal of amphetamine-induced hyperlocomotion
2 | Cn1ccc2nc(COc3ccccc3)cn2c1=O [compound 2] | > 10000 nM | 69% | 130.9 °C |  | 
3 | O=c1n(-c2ccc(F)cc2)ccc2nc(COc3ccc(F)cc3)cn12 [compound 14] | 302 nM | 72% | 163.4 °C | 309 nM | 

More lines, main results first:

Row | EC50 (human mGluR5a receptor; read-out: EC50) | Emax (human mGluR5a receptor) | melting point | EC50 (human mGluR5a receptor; [2]) | SMILES | reversal of amphetamine-induced hyperlocomotion [1]
4 | 1290 nM | 50% | > 300 °C | 1170 nM | O=c1n(-c2cccc(C(F)(F)F)c2)ccc2nc(COc3ccc(F)cc3)cn12 [compound 16] | 
5 | 8320 nM | 51% | 239.4 °C | > 10000 nM | Cc1ccnc(-n2ccc3nc(COc4ccccc4)cn3c2=O)c1 [compound 15] | 
